Measurements from patent US12673945B2, “3-((8-((1H-pyrazol-4-yl)amino)imidazo[1,2-a]pyridin-3-yl)ethinyl)-n-phenylbenzamide derivative, method for preparing same, and pharmaceutical composition containing same as active ingredient for prevention or treatment of cancer” (DAEGU-GYEONGBUK MEDICAL INNOVATION FOUNDATION, priority 2020, dated 2026).

Experiments:
Format in all cases: cell-based
[1] = test system: Parental (Ba/F3); experiment: Ba/F3 cell proliferation inhibition; conditions: BaF3; 72 hours, Cell Counting Kit-8
Method: (§1) […] lymphocyte cells, Parental (Ba/F3) and T315I-Bcr-Abl (Ba/F3) were seeded in 96-well plates at the density of 1×10^4/90 μL/well. A culture solution containing 9 concentrations (0.015 to 100 μM) of each example compound serially diluted in 3 folds or DMSO (control) were added to the plate ([…]) to a final concentration of 0 to 10 μM. The plate was incubated in a 37° C. CO2 incubator for 72 hours.
(§2) After incubation for 72 hours, the plate treated with the compound was treated with Cell Counting Kit-8 (Dojindo Molecular Technologies, Inc) solution at the concentration of 10 μL/well, and then mixed well. Then, the plate was incubated in a CO2 incubator at 37° C. for 2 hours, and absorbance at 450 nm was measured with a microplate reader. Data were expressed as percentage compared to vehicle treated cells and GI50 values were calculated using GraphPad Prism 5.0 (GraphPad software Inc., San Diego) GraphPad Prism 5.0.

[2] = test system: T315I-Bcr-Abl (Ba/F3); experiment: Ba/F3 cell proliferation inhibition; conditions: BaF3; 72 hours, Cell Counting Kit-8
Method: as §1, §2

[3] = test system: KOPM28 cells; experiment: human CML cell proliferation inhibition; conditions: 72 hours, Cell Counting Kit-8
Method: (§3) In order to evaluate the therapeutic effect of the compound according to the present invention on chronic myelogenous leukemia (CML), the following experiment was performed, and the results are shown in Table 6 below. Inhibitory activity to Bcr-Abl kinase was evaluated through the experiment using TCCS and KOPM28 cells, and inhibitory activity to T315I-Bcr-Abl kinase was evaluated through the experiment using T315I-TCCS and T315I-KOPM28 cells.
(§4) Human chronic myelogenous leukemia (CML) cells used in the experiment were TCCS, T315I-TCCS, KOPM28 and T315I-KOPM28, and the four types of cells were provided by University of Yamanashi.
(§5) Four types of human CML cells were each seeded in 96-well plates at the density of 1×10^4/90 μL/well. A culture solution containing 9 concentrations (0.000256 to 100 μM) of each example compound serially diluted in 5 folds or DMSO (control) were added to the plate (10 μL/well) to a final concentration of 0 to 10 μM. The plate was incubated in a 37° C. CO2 incubator for 72 hours.
as §2, with “8.0” for “5.0”, “Diego).” for “Diego) GraphPad Prism 5.0.”

[4] = test system: T315I-KOPM28 cells; experiment: human CML cell proliferation inhibition; conditions: 72 hours, Cell Counting Kit-8
Method: as §3, §4, §5
as §2, with “8.0” for “5.0”, “Diego).” for “Diego) GraphPad Prism 5.0.”

[5] = test system: T315I-TCCS cells; experiment: human CML cell proliferation inhibition; conditions: 72 hours, Cell Counting Kit-8
Method: as §3, §4, §5
as §2, with “8.0” for “5.0”, “Diego).” for “Diego) GraphPad Prism 5.0.”

[6] = test system: TCCS cells; experiment: human CML cell proliferation inhibition; conditions: 72 hours, Cell Counting Kit-8
Method: as §3, §4, §5
as §2, with “8.0” for “5.0”, “Diego).” for “Diego) GraphPad Prism 5.0.”

Row | SMILES | GI50 [1] | GI50 [2] | GI50 [3] | GI50 [4] | GI50 [5] | GI50 [6]
1 | Cc1cc(F)c(C(=O)Nc2cc(CN3CCN(CC(F)(F)F)CC3)cc(C(C)(C)C#N)c2)cc1C#Cc1cnc2c(Nc3cnn(C)c3)cccn12 [Example 32, N-(3-(2-cyanopropan-2-yl)-5-((4-(2,2,2-trifluoroethyl)piperazin-1-yl)methyl)phenyl)-2-fluoro-4-methyl-5-((8-((1-methyl-1H-pyrazol-4-yl)amino)imidazo[1,2-a]pyridin-3-yl)ethynyl)benzamide] | > 5 µM | 0.05 to 0.5 µM | < 0.01 µM | > 0.1 µM | > 0.1 µM | < 0.01 µM
2 | Cc1cc(F)c(C(=O)Nc2cc(CN3CCN(C(C)C)CC3)cc(C(C)(C)C#N)c2)cc1C#Cc1cnc2c(Nc3cnn(C)c3)cccn12 [Example 33, N-(3-(2-cyanopropan-2-yl)-5-((4-isopropylpiperazin-1-yl)methyl)phenyl)-2-fluoro-4-methyl-5-((8-((1-methyl-1H-pyrazol-4-yl)amino)imidazo[1,2-a]pyridin-3-yl)ethynyl)benzamide] | 0.5 to 5 µM | 0.05 to 0.5 µM | < 0.01 µM | > 0.1 µM | 0.1 µM | < 0.01 µM
3 | Cc1cc(F)c(C(=O)Nc2cc(CN3CCN(S(C)(=O)=O)CC3)cc(C(C)(C)C#N)c2)cc1C#Cc1cnc2c(Nc3cnn(C)c3)cccn12 [Example 34, N-(3-(2-cyanopropan-2-yl)-5-((4-(methylsulfonyl)piperazin-1-yl)methyl)phenyl)-2-fluoro-4-methyl-5-((8-((1-methyl-1H-pyrazol-4-yl)amino)imidazo[1,2-a]pyridin-3-yl)ethynyl)benzamide] | > 5 µM | 0.05 to 0.5 µM | < 0.01 µM | > 0.1 µM | 0.1 µM | < 0.01 µM
4 | Cc1cc(F)c(C(=O)Nc2cc(CN3CCN(C)C(=O)C3)cc(C(C)(C)C#N)c2)cc1C#Cc1cnc2c(Nc3cnn(C)c3)cccn12 [Example 35, N-(3-(2-cyanopropan-2-yl)-5-((4-methyl-3-oxopiperazin-1-yl)methyl)phenyl)-2-fluoro-4-methyl-5-((8-((1-methyl-1H-pyrazol-4-yl)amino)imidazo[1,2-a]pyridin-3-yl)ethynyl)benzamide] | 0.5 to 5 µM | 0.05 to 0.5 µM | < 0.01 µM | > 0.1 µM | > 0.1 µM | < 0.01 µM
5 | Cc1cc(F)c(C(=O)Nc2cc(CN3CC(OC(C)C)C3)cc(C(C)(C)C#N)c2)cc1C#Cc1cnc2c(Nc3cnn(C)c3)cccn12 [Example 36, N-(3-(2-cyanopropan-2-yl)-5-((3-isopropoxyazetidin-1-yl)methyl)phenyl)-2-fluoro-4-methyl-5-((8-((1-methyl-1H-pyrazol-4-yl)amino)imidazo[1,2-a]pyridin-3-yl)ethynyl)benzamide] | > 5 µM | 0.05 to 0.5 µM | < 0.01 µM | 0.1 µM | 0.1 µM | < 0.01 µM
6 | Cc1cc(F)c(C(=O)Nc2cc(Cn3ccnc3)cc(C(C)(C)C#N)c2)cc1C#Cc1cnc2c(Nc3cnn(C)c3)cccn12 [Example 37, N-(3-((1H-imidazol-1-yl)methyl)-5-(2-cyanopropan-2-yl)phenyl)-2-fluoro-4-methyl-5-((8-((1-methyl-1H-pyrazol-4-yl)amino)imidazo[1,2-a]pyridin-3-yl)ethynyl)benzamide] | > 5 µM | 0.05 to 0.5 µM | < 0.01 µM | 0.1 µM | 0.1 µM | < 0.01 µM
7 | Cc1cc(F)c(C(=O)Nc2cc(Cn3cncn3)cc(C(C)(C)C#N)c2)cc1C#Cc1cnc2c(Nc3cnn(C)c3)cccn12 [Example 38, N-(3-((1H-1,2,4-triazol-1-yl)methyl)-5-(2-cyanopropan-2-yl)phenyl)-2-fluoro-4-methyl-5-((8-((1-methyl-1H-pyrazol-4-yl)amino)imidazo[1,2-a]pyridin-3-yl)ethynyl)benzamide] | > 5 µM | < 0.05 µM | < 0.01 µM | 0.1 µM | < 0.01 µM | < 0.01 µM
